Source: patent US8518707B2, “Method of monitoring adsorbent bed breakthrough in a process for producing alkyl esters from vegetable or animal oil and from an aliphatic monoalcohol” (IFP Energies Novelles, priority 2008, dated 2013)

How the values were obtained:
[1] = cited from earlier work
[2] = Soluble glycerol in the ester stream after methanol evaporation (Esterfip-H process); assay type: physicochemical; details: methyl ester stream after alcohol evaporation, ambient temperature
Excerpt: In the Esterfip-H™ process developed by IFP and using a heterogeneous catalyst, separation between the glycerol and the ester produced occurs in several stages. In fact, methanol acting as a co-solubilizing agent for the methyl esters and the glycerol, the alcohol evaporation stage carried out at the reaction section outlet makes part of the glycerol present in the stream, in a proportion ranging between 0.1 and 5% by mass, insoluble. The soluble part represents, at ambient temperature, 500 to 700 ppm mass, the allowable maximum content set by the European standard being 200 ppm mass of free glycerol. Both the insoluble glycerol and part of the soluble glycerol therefore have to be separated. Separation is first performed through gravity decantation in a decanter drum. The ester stream flowing from the decanter is then sent to a coalescer. The glycerin phase stream is withdrawn at the bottom point of the coalescer. Methods allowing these two separation stages to be improved are described in the patent applications filed by the assignee under No. FR-07/04,711 and FR-07/04,715.

[3] = Solubility limit of glycerol in vegetable rape oil methyl ester (equilibrium with excess glycerol, GC per EN 14,214); assay type: physicochemical; details: solubility limit in vegetable rape oil methyl ester phase
Excerpt: It has therefore been necessary to determine it. Experimental measurements were therefore carried out on the vegetable rape oil methyl ester/glycerol system. The solubility measurements consisted in bringing together ester and glycerol in excess so as to obtain two distinct phases and to be sure the ester phase is saturated with glycerol, in a thermostat-controlled oven, at the selected temperature, long enough for equilibrium to be reached. A sample is then taken from the ester phase and analysed by gas chromatography according to the method of determining glycerol in ester described in the EN 14,214 standard.

OCC(O)CO [glycerol]
solubility in alcohols ([1]; alcohols): infinitely soluble
solubility in benzene ([1]; benzene): totally insoluble
solubility in ethers ([1]; ethers): little soluble
solubility in water ([1]; water): infinitely soluble
soluble part of glycerol in ester stream [2]: 500 to 700 ppm mass
Climit(glycerol) ([3]; T 20 °C): 320 ppm
Climit(glycerol) ([3]; T 43 °C): 484 ppm
Climit(glycerol) ([3]; T 61 °C): 813 ppm
Climit(glycerol) ([3]; T 80 °C): 1233 ppm
